Source: patent US10787423B2, “Piperazine and piperidine derivatives, their synthesis and use thereof in inhibiting VDAC oligomerization, apoptosis and mitochondria dysfunction” (THE NATIONAL INSTITUTE FOR BIOTECHNOLOGY IN THE NEGEV LTD., priority 2015, dated 2020)

Biological target: T1, rVDAC1-GFP2 / rVDAC1-Rluc in T-REx-293 cells (Rattus norvegicus, UniProt Q9Z2L0)
T1 construct: The rVDAC1 gene was cloned into BamHI and HindIII sites of the BRET2 plasmids (N2 variants); expressed in transfected cells; host or cells: T-REx-293 cells stably expressing hVDAC1-shRNA (T-REx-pS10)
Experiment: BRET2 assay of VDAC1 oligomerization induced by apoptosis inducers (Method A)
Assay type: cell-based
Conditions: test compound 10 μM, 1 h pre-incubation; for BRET2, % of inhibition, As2O3: As2O3 60 μM (3 h); for BRET2, % of inhibition, STS: STS 1 μM (3 h); for BRET2, % of inhibition, Selenite: selenite 30 μM (3 h)
Description: BRET2 screening may be carried out as described in the art ([…] et al., (2010) Oligomerization of the mitochondrial protein voltage-dependent anion channel is coupled to the induction of apoptosis. Mol Cell Biol 30, 5698-5709). Plasmids encoding the fusion proteins rat(r)VDAC1-GFP2 and rVDAC1-luc were constructed using the BRET2 plasmids (Perkin Elmer, Waltham, Mass.). The rVDAC1 gene was cloned into BamHI and HindIII sites of the BRET2 plasmids (N2 variants) and amplified using the forward primer [NT] and the reverse primer [NT]. […] The cells were transfected using calcium phosphate method. Transfections were carried out with 0.2 μg of a plasmid coding for rVDAC1-Rluc and with 0.8 μg of a plasmid coding for rVDAC1-GFP2. As a negative control, cells were transfected with plasmids encoding for rVDAC1-Rluc (0.2 μg DNA) and GFP2 (0.8 μg). In another control (control cells), cells were also transfected with a plasmid encoding for rVDAC1-luc (0.2 μg) and plasmid pcDNA4/TO (0.8 μg). The BRET2 signal represents the ratio of the GFP2 fluorescence, measured at its emission wavelength (510 nm), over the light intensity (luminescence) emitted at 395 nm. All measurements were performed using the Infinite 200 ELISA reader (Tecan). BRET2 signals were defined as GFP2/Rluc intensity ratio and calculated as follows: DNA encoding fusion proteins rVDAC1-Rluc (in which RLuc was connected to rVDAC1 at the C terminal position through a linker (GGGS)) and rVDAC1-GFP2 (in which the GFP2 was fused to the rVDAC1 C terminus) was cloned into BRET2 vectors. rVDAC1-GFP2 and rVDAC1-Rluc were expressed in T-REx-293 cells stably expressing shRNA-hVDAC1 and a low level of endogenous hVDAC1 (referred to as T-REx-pS10 cells) hVDAC1-shRNA, being specific to human VDAC1, allowed the expression of rVDAC1 and decreased the participation of endogenous hVDAC1 in oligomerization, thereby enhancing the BRET2 signal. rVDAC1-GFP2 and rVDAC1-Rluc expression levels were correlated with the amount of plasmids used. […] Following incubation, cells were harvested using trypsin, washed twice with PBS by centrifugation at 1000×g, 5 min, resuspended in 200 μl of PBS and divided between two wells of a 96-well clear-bottom plate (Grenier). […] The screening was conducted using BRET2 assay as described above. […] After treatment, the medium was removed and assayed for BRET2 signals as described above. Liquid handling was done with the Tecan (Männedorf, Switzerland) Freedom 150 Robotic & MCA Liquid Handling System, while luciferase luminescence and fluorescence readings were obtained a robot-integrated Tecan Infinite M1000 reader. Method A was used for screening of VDAC1 oligomerization inhibitors. […] Table 2 provides a summary of BRET2-based screen results of the anti-VDAC1 oligomerization activity of compounds from the NCI library. Results are presented as percent inhibition of the BRET2 signal induced by the indicated pro-apoptotic agent.

T1 sequence (Q9Z2L0 with tags, fused parts or gaps limits assumed): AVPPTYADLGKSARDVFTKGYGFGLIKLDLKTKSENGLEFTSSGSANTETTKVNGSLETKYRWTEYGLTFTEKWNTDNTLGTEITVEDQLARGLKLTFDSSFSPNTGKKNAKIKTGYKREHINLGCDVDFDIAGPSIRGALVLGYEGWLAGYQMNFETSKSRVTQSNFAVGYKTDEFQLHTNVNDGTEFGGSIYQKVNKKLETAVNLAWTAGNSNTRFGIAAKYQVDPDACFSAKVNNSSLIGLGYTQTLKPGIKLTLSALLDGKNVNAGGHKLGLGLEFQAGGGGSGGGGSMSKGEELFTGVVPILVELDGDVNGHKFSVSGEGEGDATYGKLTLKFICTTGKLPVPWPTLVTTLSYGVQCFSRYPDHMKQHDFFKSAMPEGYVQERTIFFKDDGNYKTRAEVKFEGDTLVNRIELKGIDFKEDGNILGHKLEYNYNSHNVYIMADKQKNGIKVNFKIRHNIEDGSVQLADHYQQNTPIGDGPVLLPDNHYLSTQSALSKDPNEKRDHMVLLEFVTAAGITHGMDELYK

Structure (SMILES) | BRET2, % of inhibition, As2O3 [%] | BRET2, % of inhibition, STS [%] | BRET2, % of inhibition, Selenite [%]
CCCOc1nc2c(c(=O)n(C)c(=O)n2C)n1C [NSC 8816] | 49.6 | 0 | 20.1
COc1ccc(/C=C2/CCOC2=O)cc1 [NSC 10428] | 96.4 | 38.2 | 75.7
CCOC(=O)c1[nH]c(CO)c(C(=O)OCC)c1C [NSC 10768] | 52 | 0 | 9.6
Oc1ccc(Cc2ccc(Cl)cc2)c(O)c1 [NSC 11150] | 95.2 | 11.6 | 67
CCOC(=O)N1CCN(Cc2c(O)ccc3ccccc23)CC1 [NSC 12262] | 81.5 | 0 | 67.4
O=C(/C=C/c1ccccc1Cl)c1ccc(O)cc1 [NSC 13151] | 67 | 0 | 0
Nc1ccc(C(=O)Nc2cccc(N)c2)cc1 [NSC 15362] | 98 | 39.7 | 41
Nc1ccc(NC(=O)Nc2ccc(N)cc2)cc1 [NSC 15364] | 85.4 | 40.9 | 75.9
O=C(O)c1ccc(O)c(O)c1 [NSC 16631] | 0 | 30.5 | 41.5
Nc1ncnc2c1cnn2C1CCCCC1 [NSC 19115] | 64.2 | 36.4 | 62
S=c1nc[nH]c2c1ncn2C1CCCC1 [NSC 19487] | 88.8 | 32.6 | 68.6
O=[N+]([O-])c1cccc(/C=C/c2ccccn2)c1 [NSC 19637] | 76.2 | 0 | 61.8
CC(C)NC(=O)c1ccc(C(C)C)cc1 [NSC 20045] | 88 | 0 | 77.4
Cc1ccc(-n2nnnc2-c2cccnc2)cc1 [NSC 23247] | 97.3 | 0 | 52.1
CCN1CCc2ccccc2C1 [NSC 28837] | 85.2 | 0.3 | 48.3
CCOc1ccc(Nc2c3ccccc3nc3ccccc23)cc1 [NSC 30205] | 62.7 | 0 | 0
CC(C)COC(=O)NC1c2ccccc2Oc2ccccc21 [NSC 31069] | 74.9 | 0 | 0
COc1c(NC(C)=O)c2ccccc2c2ccccc12 [NSC 31698] | 51.3 | 0 | 2.1
CCOC(=O)Nc1ccc(C(=O)/C=C/c2ccccc2)cc1 [NSC 31703] | 56.7 | 16.6 | 33.3
CC1=CC(=O)C(C(C)=Nc2ccccc2Cl)C(=O)O1 (stereo not drawn) [NSC 32892] | 55.4 | 0 | 16.4
O=c1c(-c2ccc(O)cc2)coc2cc(O)cc(O)c12 [NSC 36586] | 49 | 0 | 0

Structure (SMILES) | BRET2, % of inhibition, As2O3 [%] | BRET2, % of inhibition, STS [%] | BRET2, % of inhibition, Selenite [%]
CN1CCN(C(=O)Nc2ccc([N+](=O)[O-])cc2)CC1 [NSC 36815] | 67.7 | 34.5 | 50
NC(=O)c1ccc(Oc2ccc(C(N)=O)cc2)cc1 [NSC 39047] | 70.2 | 39.1 | 54
O=C(O)c1cccc2c1C(=O)c1cccc3snc-2c13 [NSC 39938] | 48.7 | 0 | 18.8
O=C(O)c1cc2ccccc2cc1Nc1ccccc1 [NSC 40275] | 64.8 | 16.8 | 35.2
O=C(O)c1ccccc1C(=O)Nc1ccccc1[N+](=O)[O-] [NSC 41066] | 48.8 | 0 | 0
CN1[C@@H]2CC[C@H]1CC(OC(c1ccccc1)c1ccccc1)C2.CS(=O)(=O)O (stereo partly drawn) [NSC 42199] | 97 | 31 | 78.7
O=P(O)(O)c1cc(-c2ccccc2)oc1-c1ccccc1 [NSC 43344] | 80.7 | 23.8 | 50.1
CC(C)OC(=O)Nc1ccc(-c2ccc(NC(=O)OC(C)C)cc2Cl)c(Cl)c1 [NSC 43678] | 95.1 | 34.6 | 78.3
NCc1c(O)ccc2ccccc12 [NSC 48422] | 0 | 36.8 | 38.6
O=C(Nc1ccc(C2=NCCN2)cc1)c1ccc(Cl)c(C(=O)Nc2ccc(C3=NCCN3)cc2)c1 [NSC 67436] | 78.1 | 14.8 | 65.7
Nc1nc(N)c(C=Nc2ccc(Br)cc2)c(Nc2ccc(Br)cc2)n1 [NSC 103520] | 82.5 | 22.7 | 74
CC#CC#Cc1cccc(=O)o1 [NSC 109292] | 75.4 | 0 | 0
O=C1CN2CCC1C/C2=C\c1ccnc2c(Cl)cccc12 (stereo not drawn) [NSC 132868] | 55.5 | 0 | 41.4
Cc1ccc([N+](=O)[O-])cc1NC(=O)Nc1ccc(S(N)(=O)=O)cc1 [NSC 146554] | 100 | 0 | 71.8
O=C(Nc1ccc(Nc2ccncc2)cc1)c1ccc(Nc2ccnc3ccc([N+](=O)[O-])cc23)cc1 [NSC 146771] | 70.7 | 41.2 | 68.1
O=C(O)c1cc2ccccc2c2cc(Br)ccc12 [NSC 151252] | 100 | 0 | 29.8
Clc1ccc(/C=C/c2nc(Cl)c(-c3ccc(Cl)cc3)c(Cl)n2)cc1 [NSC 154389] | 90.6 | 45.9 | 90.6
Nc1ccc(C(=O)Oc2ccc([N+](=O)[O-])cc2)cc1 [NSC 163802] | 65.8 | 0 | 1.2
CCCCC(=O)N1CCCC(C)C1 (stereo not drawn) [NSC 191029] | 86.5 | 0 | 36.4
O=C(Nc1cccc([N+](=O)[O-])c1)c1cccc(C(=O)Nc2cccc([N+](=O)[O-])c2)c1 [NSC 204232] | 90.3 | 0 | 32.5
O=C(/C=C/c1ccccc1)NC(=S)Nc1ncccn1 [NSC 205968] | 58.5 | 0 | 0
